Each structure is given as a SMILES string. Where a SMILES comes first, the peptide text is derived from it. Bridges are numbered along the chain shown (N, C = ends). [ ]: non-standard residue; d: D form. The star is where a group is joined. X1 = CC1(CCCCS(=O)(=O)O)C(/C=C/C=C/C=C2/N(CCCS(=O)(=O)O)c3ccc(S(=O)(=O)O)cc3C2(C)C)=[N+](CCCCCC(=O)NCc2cn(CCOCCOCCOCCOCCC(=O)*)nn2)c2ccc(S(=O)(=O)[O-])cc21; Hyp = O=C(O)[C@@H]1C[C@@H](O)CN1; Pen = CC(C)(S)[C@H](N)C(=O)O; dDab = NCC[C@@H](N)C(=O)O; Dab = NCC[C@H](N)C(=O)O

Data set [1] deals with T1, mLptA (Escherichia coli, UniProt P0ADV1, E39V/M47A/R76A).
T1 construct: the LptA25–185 mutant E39V M47A R76A was selected as the best candidate; His6-GB1 (N, cleaved yes); made in house; host or cells: E. coli BL21 (DE3)
Description: biochemical. The class given is binding, E. coli. The protocol:
(§1) Protein stocks were purified and concentrated in buffer 1 [50 mM Na-Pi (pH 7) and 150 mM NaCl] and, if necessary, diluted to desired concentrations using buffer 2 [50 mM Na-Pi (pH 7), 150 mM NaCl, and 0.05% Tween 20]. Peptide stocks and fluorescently labeled peptide stocks were made in buffer 2. Every serial dilution consisted of 24 wells, the first well with the highest concentrate and the last well (well 24) with the lowest. First, 50 μl of buffer 2 was added to the wells 2 to 24 of each serial dilution. Then, 100 μl of concentrated unlabeled peptide/protein in their respective buffers was added to the first well. […] Anisotropy was measured using the Tecan Safire2 plate reader using a 10-nm bandwidth and setting the excitation and emission wavelengths to 635 and 670 nm, respectively. The G-factor (G) was also determined empirically as 1.094 for the instrument and included in all the anisotropy calculations.
(§2) For direct binding assays, fluorescence anisotropy (r) was calculated using the parallel and perpendicular polarized intensities (I) by the equation r=I∥−I⊥∗G/I∥+2I⊥∗G
(§3) Anisotropy for the blank, the fluorescently labeled peptide only (6-FL only), was measured and subtracted from r to yield r′. […] A nonspecific binding factor (NS) was determined using a linear regression model (y = NS ∗ X + b) at the highest concentrations and incorporated into the fit.

The target in the next data set is T2, mLptAQ62L (Escherichia coli, UniProt P0ADV1, E39V/M47A/Q62L/R76A).
T2 construct: the LptA25–185 mutant E39V M47A R76A was selected as the best candidate; His6-GB1 (N, cleaved yes); made in house; host or cells: E. coli BL21 (DE3)
The experiment in a line: biochemical. The class given is binding, E. coli. How it is done:
as §1, §2, §3

The target of data set [2] is T3, LptAm (Escherichia coli, UniProt P0ADV1).
T3 construct: His6-GB1 (N, cleaved yes); made in house; host or cells: E. coli BL21 (DE3)
Description: FP direct binding assay. On the set-up: species or system E. coli.

Data set [3] deals with mLptA. The following applies: read-out: Kd ± 95CI, K. pneumoniae mLptA; FP direct binding of 6-FL; triplicates; ± 95% CI of fit. How it is done:
(§4) Protein stocks were purified and concentrated in buffer 1 [50 mM Na-Pi (pH 7) and 150 mM NaCl] and, if necessary, diluted to desired concentrations using buffer 2 [50 mM Na-Pi (pH 7), 150 mM NaCl, and 0.05% Tween 20]. Peptide stocks and fluorescently labeled peptide stocks were made in buffer 2. Every serial dilution consisted of 24 wells, the first well with the highest concentrate and the last well (well 24) with the lowest. First, 50 μl of buffer 2 was added to the wells 2 to 24 of each serial dilution. Then, 100 μl of concentrated unlabeled peptide/protein in their respective buffers was added to the first well. Fifty microliters were taken from the first well and added to the second well for a 1:1 serial dilution and continued for the 24 wells. […] Plates were covered with adhesive seals and left to incubate overnight at 4°C before FP measurements the next day. Anisotropy was measured using the Tecan Safire2 plate reader using a 10-nm bandwidth and setting the excitation and emission wavelengths to 635 and 670 nm, respectively. The G-factor (G) was also determined empirically as 1.094 for the instrument and included in all the anisotropy calculations.
as §2
(§5) Anisotropy for the blank, the fluorescently labeled peptide only (6-FL only), was measured and subtracted from r to yield r′. The r′ data were normalized and fit to the One site − Total model on GraphPad Prism 9. A nonspecific binding factor (NS) was determined using a linear regression model (y = NS ∗ X + b) at the highest concentrations and incorporated into the fit.

The target in data set [4] is LptAm. Particulars: read-out: Kd ± 95CI, K. pneumoniae LptAm; FP direct binding of 6-FL; triplicates; ± 95% CI of fit. The protocol: as §4, §2, §5
Data set [5] has as its target LptAmQ62L. Particulars: read-out: Kd ± 95CI, K. pneumoniae LptAmQ62L; FP direct binding of 6-FL; triplicates; ± 95% CI of fit. The protocol: as §4, §2, §5
The target in another data set is T4, LptAmD33A (Escherichia coli, UniProt P0ADV1, D33A).
T4 construct: His6-GB1 (N, cleaved yes); made in house; host or cells: E. coli BL21 (DE3)
The experiment in a line: FP direct binding assay. On the set-up: species or system E. coli.

Data set [6] concerns the target T5, LptAmQ62L (Escherichia coli, UniProt P0ADV1, Q62L).
T5 construct: His6-GB1 (N, cleaved yes); made in house; host or cells: E. coli BL21 (DE3)
Description: FP direct binding assay. On the set-up: species or system E. coli.

The target of the next data set is T6, LptAmQ62L, D33A (Escherichia coli, UniProt P0ADV1, D33A/Q62L).
T6 construct: His6-GB1 (N, cleaved yes); made in house; host or cells: E. coli BL21 (DE3)
The experiment in a line: FP direct binding assay. On the set-up: species or system E. coli.

Data set [7] relates to K. pneumoniae 968733 (CST-R). The experiment in a line: MIC assay (CLSI). The following applies: CLSI method; colistin-resistant strain. The class given is cell-based, Klebsiella pneumoniae. The protocol:
MIC assays [Clinical and Laboratory Standards Institute (CLSI) methodology] and serial passage studies were performed as described by Luther et al. ([6]). […] Resistant mutants were isolated, and their MIC values were determined and sent to Microbes NG (Birmingham, United Kingdom) for whole-genome sequencing and bioinformatic analysis.

The test system of the next data set is human red blood cells. Description: Haemolysis. It is filed as cell-based. Particulars: PBS-washed human red blood cells; 1 h at 200 mg/liter, 37°C; OD 540 nm; versus 100% lysis control 2.5% Triton X-100; biological replicates. How it is done: To test their hemolytic potential, compounds were incubated in the presence of phosphate-buffered saline (PBS)–washed human red blood cells. After 1-hour incubation at 200 mg/liter and 37°C, the samples were centrifuged (3220g), the supernatants were diluted in Dulbecco’s PBS, and optical density at 540 nm was determined. The hemolysis induced by the compound was calculated versus a 100% lysis control prepared with 2.5% Triton X-100 (table S4A).

Data set [8] relates to E. coli ATCC 25922 (parent / WT). Description: microbe, parasite or virus in culture. Particulars: CLSI method; parent strain. Put shortly: (§6)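 MICs were determined by CLSI methodology. Serial passage studies were also run, and resistant mutants isolated from them were re-tested for MIC and then characterised by whole-genome sequencing.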
For data set [9], the system named is E. coli ATCC 25922 LptA Q62L mutant. Description: microbe, parasite or virus in culture. The following applies: CLSI method; clone harboring LptA Q62L. Put shortly: as §6
A further data set concerns HeLa cells. Description: in vitro. It is filed as cell-based. How it is done:
(§7) The cytotoxicity of compounds was determined by determining the number of viable cells using the Sigma Cell Counting Kit-8 (WST-8). HeLa cells were incubated at 37°C and 5% CO2 for 24 hours, after which the medium was replaced with fresh medium containing dilutions of compounds. […]

The nature of a further data set: in vitro. The class given is cell-based. The following applies: human. How it is done: as §7

T4 sequence (P0ADV1 28-159 D33A): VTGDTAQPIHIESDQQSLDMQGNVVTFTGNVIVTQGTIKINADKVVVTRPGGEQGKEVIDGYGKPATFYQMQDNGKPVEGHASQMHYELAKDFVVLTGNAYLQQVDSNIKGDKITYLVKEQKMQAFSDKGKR
T1 sequence (P0ADV1 25-185 E39V/M47A/R76A): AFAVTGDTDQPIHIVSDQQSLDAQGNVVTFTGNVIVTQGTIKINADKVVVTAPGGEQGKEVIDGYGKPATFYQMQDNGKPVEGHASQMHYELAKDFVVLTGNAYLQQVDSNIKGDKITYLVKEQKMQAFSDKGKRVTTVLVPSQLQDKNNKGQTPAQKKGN
T6 sequence (P0ADV1 28-159 D33A/Q62L): as the sequence (P0ADV1 28-159 D33A) above, with Q35L counted along it
T3 sequence (P0ADV1 28-159): as the sequence (P0ADV1 28-159 D33A) above, with A6D counted along it
T5 sequence (P0ADV1 28-159 Q62L): as the sequence (P0ADV1 28-159 D33A) above, with A6D, Q35L counted along it
T2 sequence (P0ADV1 25-185 E39V/M47A/Q62L/R76A): as the sequence (P0ADV1 25-185 E39V/M47A/R76A) above, with Q38L counted along it

Take `CC[C@H](C)[C@H](NC(=O)[C@@H]1C[C@@H](O)CN1C(=O)[C@@H](N)C(C)C)C(=O)N[C@H](C(=O)N[C@@H](Cc1ccc(O)cc1)C(=O)N[C@@H]1C(=O)N[C@@H](CC(N)=O)C(=O)N[C@@H](CCCNC(=N)N)C(=O)N[C@@H](CCN)C(=O)N[C@@H](CCCCNC(=O)CCOCCOCCOCCOCCn2cc(CNC(=O)CCCCC[N+]3=C(/C=C/C=C/C=C4/N(CCCS(=O)(=O)O)c5ccc(S(=O)(=O)O)cc5C4(C)C)C(C)(CCCCS(=O)(=O)O)c4cc(S(=O)(=O)[O-])ccc43)nn2)C(=O)N[C@H](CCN)C(=O)N[C@@H](CCCCN)C(=O)N[C@H](C(=O)N[C@@H](CCN)C(=O)N[C@@H](CCCNC(=N)N)C(=O)N[C@@H](Cc2ccc(O)cc2)C(=O)O)CSSC1(C)C)[C@@H](C)O` (stereo partly drawn) [6-FL] (H-V[Hyp]ITY[Pen]NR[Dab]K(X1)[dDab]KC[Dab]RY-OH; disulfide 6-13): the Kd – broadly, a measure of binding affinity in units of concentration – on mLptA [1] worked out at 968 ± 191 nM; at mLptAQ62L it was 8140 ± 1180 nM; at LptAm [2], 6.9 ± 1.7 nM; at mLptA [3], 453 ± 29.3 nM; on LptAm [4], 3.7 ± 0.9 nM; at LptAmQ62L [5], 242 ± 45.1 nM. Also, the Kd at LptAmD33A is 13.8 ± 8.2 nM; on LptAmQ62L [6], 73.3 ± 21.3 nM; on LptAmQ62L, D33A, 82.4 ± 10.3 nM.
With `CC[C@H](C)[C@H](NC(=O)[C@@H](NC(=O)[C@@H]1CCCN1C(=O)[C@@H](N)C(C)C)[C@@H](C)CC)C(=O)N[C@@H](Cc1ccc(O)cc1)C(=O)N[C@@H]1C(=O)N[C@@H](CC(N)=O)C(=O)N[C@@H](CCCNC(=N)N)C(=O)N[C@@H](CCN)C(=O)N[C@@H]([C@@H](C)O)C(=O)N[C@H](CCN)C(=O)N[C@@H](CCCCN)C(=O)N[C@H](C(=O)N[C@@H](CCN)C(=O)N[C@@H](CCCNC(=N)N)C(=O)N[C@@H](Cc2ccc(O)cc2)C(=O)O)CSSC1(C)C` [Compound 3] (H-VPIIY[Pen]NR[Dab]T[dDab]KC[Dab]RY-OH; disulfide 6-13), in [7], the “MIC K. pneumoniae 968733 (CST-R) Parent” value is listed as 0.25 micrograms per milliliter. In the data set with human red blood cells, the “Haemolysis % at 0.2 g/L” value was 0%. The “MIC E. coli ATCC 25922 Parent” value in data set [8] was found to be 0.063 micrograms per milliliter. In data set [9], the “MIC E. coli ATCC 25922 Q62L mutant” value was determined as 1 micrograms per milliliter. Moreover, the IC50 (as a rule, the concentration at which inhibition is half-maximal) in the data set with HeLa cells is 40000 nM. The compound further yielded an IC50 at 48 h in the data set “in vitro” of 41000 nM.

Values taken from PMC10208570, “Peptidomimetic antibiotics disrupt the lipopolysaccharide transport bridge of drug-resistant Enterobacteriaceae” (Science Advances, 2023).
